Experiments:
MDA-MB-231 [1] = assay: drug sensitivity score (DSS), cytotoxicity CellTox Green; higher = more cytotoxic; extreme values may be limits of the assay; details: 72 h
MDA-MB-231 [2] = assay: drug sensitivity score (DSS), cell viability CellTiter-Glo; higher = more sensitive; extreme values may be limits of the assay; details: 72 h
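Wherever drug sensitivity score (DSS), cytotoxicity CellTox Green is given: DSS summarises each dose–response curve by combining IC50, EC50, maximal inhibition and efficacy across drug concentrations.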

Structure (SMILES)	drug sensitivity score (MDA-MB-231 [1]; shRNA: shPPFIA1_1)	drug sensitivity score (MDA-MB-231 [1]; shRNA: shScramble)	drug sensitivity score (MDA-MB-231 [2]; shRNA: shPPFIA1_1)	drug sensitivity score (MDA-MB-231 [2]; shRNA: shScramble)
CC(=O)N(O)CCCCCNC(=O)CCC(=O)N(O)CCCCCNC(=O)CCC(=O)N(O)CCCCCN [Deferoxamine]	0 DSS	0 DSS	2.5 DSS	2.7 DSS
NC[C@@](O)(c1ccc(Cl)cc1)c1ccc(-c2cn[nH]c2)cc1	7.8 DSS	7.6 DSS	3 DSS	6 DSS
O=C(CCCCCCC(=O)Nc1ccc([C@H]2O[C@@H](CSc3nc(-c4ccccc4)c(-c4ccccc4)o3)C[C@@H](c3ccc(CO)cc3)O2)cc1)NO [Tubacin]	7.2 DSS	2.2 DSS	7.3 DSS	5 DSS
CC(=O)O[C@H]1C(=O)[C@@]2(C)[C@H]([C@H](OC(=O)c3ccccc3)[C@]3(O)C[C@H](OC(=O)[C@H](O)[C@@H](NC(=O)c4ccccc4)c4ccccc4)C(C)=C1C3(C)C)[C@]1(OC(C)=O)CO[C@@H]1C[C@@H]2O [Paclitaxel]	8.8 DSS	9.2 DSS	0 DSS	12.8 DSS
COc1cccc(OCCCN)c1-c1cc(Nc2cnc(C#N)cn2)n[nH]1 [Prexasertib]	21 DSS	6.9 DSS	13.2 DSS	29.8 DSS
Cn1cc(CNCC2CCN(c3ncc(C(=O)NO)cn3)CC2)c2ccccc21 [Quisinostat]	8.6 DSS	8.2 DSS	8.8 DSS	11.2 DSS
S=P(N1CC1)(N1CC1)N1CC1 [Thio-TEPA]	0 DSS	0 DSS	0.9 DSS	0.9 DSS
CO[C@H]1C[C@@H]2CC[C@@H](C)[C@@](O)(O2)C(=O)C(=O)N2CCCC[C@H]2C(=O)O[C@H]([C@H](C)C[C@@H]2CC[C@@H](OP(C)(C)=O)[C@H](OC)C2)CC(=O)[C@H](C)/C=C(\C)[C@@H](O)[C@@H](OC)C(=O)[C@H](C)C[C@H](C)/C=C/C=C/C=C/1C [Ridaforolimus]	0 DSS	0 DSS	0 DSS	1.6 DSS
COC[C@H](NC(=O)c1cnc(C)s1)C(=O)N[C@@H](COC)C(=O)N[C@@H](Cc1ccccc1)C(=O)[C@@]1(C)CO1 [Oprozomib]	17 DSS	16.8 DSS	11.4 DSS	11.5 DSS
Cc1ccccc1C(C(=O)NC1CCCCC1)N(C(=O)Cn1ccnc1C)c1cccc(F)c1 (stereo not drawn) [AGI-5198]	0 DSS	0 DSS	0 DSS	0 DSS
CNc1ncc2cc(-c3cc(NC(=O)NCCC(C)(C)C)c(F)cc3C)c(C)nc2n1	21.9 DSS	19.4 DSS	0.6 DSS	14.8 DSS
Cn1cnc2c(F)c(Nc3ccc(Br)cc3Cl)c(C(=O)NOCCO)cc21 [Selumetinib]	3.8 DSS	8 DSS	0.3 DSS	5.2 DSS
O=c1sn(-c2cccc3ccccc23)c(=O)n1Cc1ccccc1 [Tideglusib]	0 DSS	0 DSS	0 DSS	0 DSS
COc1cc2c(cc1O)CC[C@@H]1[C@@H]2CC[C@]2(C)[C@@H](O)CC[C@@H]12 [2-methoxyestradiol]	0 DSS	0.3 DSS	0.7 DSS	2.9 DSS
COc1cc(Nc2ncc3c(n2)-c2ccc(Cl)cc2C(c2c(F)cccc2OC)=NC3)ccc1C(=O)O [Alisertib]	0.7 DSS	0 DSS	0.8 DSS	0.1 DSS
c1cn2cc(-c3ccc4cn[nH]c4c3)nc(Nc3ccc(N4CCOCC4)cc3)c2n1 [Entospletinib]	10.3 DSS	0 DSS	0.9 DSS	0 DSS
CC[C@H](NC(=O)[C@H](C)NC)C(=O)N1C[C@@H](O)C[C@H]1Cc1c(-c2[nH]c3cc(F)ccc3c2C[C@@H]2C[C@H](O)CN2C(=O)[C@H](CC)NC(=O)[C@H](C)NC)[nH]c2cc(F)ccc12 [Birinapant]	31.3 DSS	22.4 DSS	20.3 DSS	13.2 DSS
Cc1ccc(NC(=O)c2ccc(CN3CCN(C)CC3)cc2)cc1Nc1nccc(-c2cccnc2)n1 [Imatinib]	1.4 DSS	0 DSS	1.5 DSS	0 DSS
O=C(Nc1cccnc1)N1CCC(Cc2cccc(Oc3ccc(C(F)(F)F)cn3)c2)CC1 [PF-3845]	4 DSS	0.3 DSS	4.3 DSS	4 DSS
CCn1cc(-c2ccnc3[nH]c(-c4cccc(CN(C)C)c4)cc23)c(-c2ccc(NC(=O)N(C)C)cc2)n1	0 DSS	6.4 DSS	3.9 DSS	0 DSS
Cc1cc(Nc2cc(CN3CCOCC3)c3nc(C)c(Cc4ccc(Cl)cc4F)n3n2)n[nH]1 [Gandotinib]	2.1 DSS	1.7 DSS	1.6 DSS	4.4 DSS

Structure (SMILES)	drug sensitivity score (MDA-MB-231 [1]; shRNA: shPPFIA1_1)	drug sensitivity score (MDA-MB-231 [1]; shRNA: shScramble)	drug sensitivity score (MDA-MB-231 [2]; shRNA: shPPFIA1_1)	drug sensitivity score (MDA-MB-231 [2]; shRNA: shScramble)
COc1ccc(C2=N[C@@H](c3ccc(Cl)cc3)[C@@H](c3ccc(Cl)cc3)N2C(=O)N2CCNC(=O)C2)c(OC(C)C)c1 [Nutlin-3]	0 DSS	0 DSS	0 DSS	0 DSS
CCc1c2c(nc3ccc(OC(=O)N4CCC(N5CCCCC5)CC4)cc13)-c1cc3c(c(=O)n1C2)COC(=O)[C@]3(O)CC [Irinotecan]	0 DSS	0 DSS	0 DSS	0.3 DSS
CN1CCN(c2cc(C(=O)Nc3ccc4c(c3)-c3c(c(C(N)=O)nn3-c3ccc(F)cc3)CC4)c(Cl)cn2)CC1 [PHA 408]	5.2 DSS	6.9 DSS	4.2 DSS	6.3 DSS
CN1CCN(c2nc(C3=C(c4c[nH]c5ccccc45)C(=O)NC3=O)c3ccccc3n2)CC1 [Sotrastaurin]	0.7 DSS	0 DSS	1 DSS	0 DSS
C1=N/C2=N/c3ccc(OCCN4CCCC4)c(c3)COC/C=C/COCc3cccc(c3)C(=C1)N2 [Pacritinib]	1.6 DSS	0.6 DSS	2.4 DSS	6.2 DSS
Cc1cc2c(C(=O)NC[C@H](C)c3ccccc3)c(O)c(O)cc2c(O)c1-c1c(C)cc2c(C(=O)NC[C@H](C)c3ccccc3)c(O)c(O)cc2c1O [Sabutoclax]	11.4 DSS	5.6 DSS	11.8 DSS	13.6 DSS
Nc1cccc2c1C(=O)N(C1CCC(=O)NC1=O)C2=O (stereo not drawn) [Pomalidomide]	0 DSS	0 DSS	0 DSS	0 DSS
Cn1cc(-c2ccc3nnc(C(F)(F)c4ccc5ncccc5c4)n3n2)cn1	0 DSS	0 DSS	0 DSS	6.9 DSS
O=C(CCBr)N1CCN(C(=O)CCBr)CC1 [Pipobroman]	0 DSS	0 DSS	0 DSS	0 DSS
Nc1ccn([C@@H]2O[C@H](CO)[C@@H](O)C2(F)F)c(=O)n1 [Gemcitabine]	0.3 DSS	0 DSS	1.3 DSS	8.6 DSS
O=C(O)c1ccc(-c2c[nH]c3ncc(-c4ccccc4)cc23)cc1C1CCCC1	0 DSS	0 DSS	0 DSS	0 DSS
O=C1c2c(O)ccc(O)c2C(=O)c2c(NCCNCCO)ccc(NCCNCCO)c21 [Mitoxantrone]	0 DSS	0 DSS	0 DSS	3.2 DSS
N#CC[C@H](C1CCCC1)n1cc(-c2ncnc3[nH]ccc23)cn1 [Ruxolitinib]	0 DSS	0 DSS	0.6 DSS	2.1 DSS
C[C@]12CC[C@H](O)CC1=CC[C@@H]1[C@@H]2CC[C@]2(C)C(c3cccnc3)=CC[C@@H]12 [Abiraterone]	0 DSS	0 DSS	0 DSS	0.9 DSS
COc1ccc(-c2nc(N3CCOCC3)c3sc(CN(C)c4ncc(C(=O)NO)cn4)cc3n2)cn1 [CUDC-907]	23.5 DSS	24.5 DSS	24 DSS	28 DSS
Cc1ncc(-c2ccnc(Nc3ccc(S(C)(=O)=O)cc3)n2)n1C(C)C [AZD-5438]	2.7 DSS	0.5 DSS	0.1 DSS	2.3 DSS
O=c1cc(N2CCOCC2)oc2c(-c3ccccc3)cccc12	0.1 DSS	2.4 DSS	1.7 DSS	0 DSS
Nc1cccc2c1CN(C1CCC(=O)NC1=O)C2=O (stereo not drawn) [Lenalidomide]	0 DSS	0 DSS	0 DSS	0 DSS
N[C@@H](Cc1ccc(N(CCCl)CCCl)cc1)C(=O)O [Melphalan]	0 DSS	0 DSS	0 DSS	0.4 DSS
COc1cc2nccc(Oc3ccc(NC(=O)C4(C(=O)Nc5ccc(F)cc5)CC4)cc3)c2cc1OC [Cabozantinib]	0 DSS	0 DSS	3.2 DSS	1.1 DSS
O=c1[nH]cc(F)c(=O)[nH]1 [Fluorouracil]	0 DSS	0 DSS	0 DSS	0.6 DSS

Structure (SMILES)	drug sensitivity score (MDA-MB-231 [1]; shRNA: shPPFIA1_1)	drug sensitivity score (MDA-MB-231 [1]; shRNA: shScramble)	drug sensitivity score (MDA-MB-231 [2]; shRNA: shPPFIA1_1)	drug sensitivity score (MDA-MB-231 [2]; shRNA: shScramble)
O=C(O)c1ccc(CN2CCC(CN[C@@H]3C[C@H]3c3ccccc3)CC2)cc1	0 DSS	0 DSS	0 DSS	0 DSS
CCn1c(=O)c(-c2cc[nH]n2)cc2c(C)nc(N)nc21 [Voxtalisib]	0 DSS	0.2 DSS	0.8 DSS	4.3 DSS
CN1CCC(COc2cnc(-c3cccc(Cn4nc(-c5cccc(C#N)c5)ccc4=O)c3)nc2)CC1	0 DSS	0 DSS	0 DSS	0 DSS
CN(C[C@@H]1COCCO1)S(=O)(=O)Nc1ccc2ccc3ncc(-c4cnn(C)c4)cc3c(=O)c2c1 [MK-2461]	0 DSS	0 DSS	0 DSS	3.6 DSS
CC/C(=C(\c1ccc(O)cc1)c1ccc(OCCN(C)C)cc1)c1ccccc1 [4-hydroxytamoxifen]	2.2 DSS	3.3 DSS	2.7 DSS	4.8 DSS
Cc1csc(-c2nnc(Nc3ccc(Oc4ncccc4-c4ccnc(N)n4)cc3)c3ccccc23)c1 [AMG-900]	0 DSS	0 DSS	0 DSS	0.3 DSS
C[C@]12O[C@H](C[C@]1(O)CO)n1c3ccccc3c3c4c(c5c6ccccc6n2c5c31)CNC4=O [Lestaurtinib]	0 DSS	0 DSS	1.1 DSS	4.9 DSS
CCn1c(=O)c(-c2ccc(Cl)cc2Cl)cc2cnc(Nc3ccc(N4CCNCC4)c(F)c3)nc21 [FRAX486]	0 DSS	0 DSS	0 DSS	2.8 DSS
C[C@@H](Oc1ccc2[nH]nc(/C=C/c3cnn(CCO)c3)c2c1)c1c(Cl)cncc1Cl	0 DSS	0 DSS	0 DSS	4.8 DSS
COc1cc(N2CCC(N3CCN(C)CC3)CC2)ccc1Nc1ncc(Cl)c(Nc2ccccc2P(C)(C)=O)n1 [Brigatinib]	1.8 DSS	3.6 DSS	6.4 DSS	0.7 DSS
Cc1nc(NC(=O)N2CCC[C@H]2C(N)=O)sc1-c1ccnc(C(C)(C)C(F)(F)F)c1 [Alpelisib]	0 DSS	0 DSS	1.5 DSS	0 DSS
CCN(CC)Cc1ccc2cc(COC(=O)Nc3ccc(C(=O)NO)cc3)ccc2c1 [Givinostat]	2.4 DSS	3.4 DSS	0.9 DSS	4 DSS
NC(=O)Nc1cc(-c2cccc(F)c2)sc1C(=O)N[C@H]1CCCNC1 [AZD7762]	2.8 DSS	0.1 DSS	4.5 DSS	5.7 DSS
O=C(O)CC[C@H]1CC[C@@](c2cc(F)ccc2F)(S(=O)(=O)c2ccc(Cl)cc2)CC1 [MK-0752]	0 DSS	0 DSS	0 DSS	0.2 DSS
CNC(=O)c1ccc(C)c(-n2c(C)cc(OCc3ccc(F)cc3F)c(Br)c2=O)c1	0 DSS	0 DSS	0 DSS	0 DSS
CCN1CCN(c2ccc(Nc3cc(N(C)C(=O)Nc4c(Cl)c(OC)cc(OC)c4Cl)ncn3)cc2)CC1 [NVP-BGJ398]	0 DSS	0 DSS	0 DSS	0 DSS
CCCCCCCCCCCCCCCCCCOP(=O)([O-])OC1CC[N+](C)(C)CC1 [Perifosine]	0.9 DSS	0 DSS	0 DSS	0.9 DSS
COc1cc(CCc2cc(NC(=O)c3ccc(N4CC(C)NC(C)C4)cc3)n[nH]2)cc(OC)c1 (stereo not drawn) [AZD4547]	0 DSS	0 DSS	0 DSS	0 DSS
CC(C)c1c(C(=O)Nc2ccccc2)c(-c2ccccc2)c(-c2ccc(F)cc2)n1CC[C@@H](O)C[C@@H](O)CC(=O)O [Atorvastatin]	2 DSS	0.6 DSS	2.5 DSS	7.3 DSS
COc1cc2c(Oc3ccc(NC(=O)C4(C(=O)Nc5ccc(F)cc5)CC4)cc3F)ccnc2cc1OCCCN1CCOCC1 [Foretinib]	0 DSS	0 DSS	0 DSS	2.2 DSS

Reference: the supplement of paper PMC10920090
